# Measured values as given in patent US11236105B2, “Bicyclic compounds and methods of use” (BioTheryX, Inc., priority 2017, dated 2022).
# Test system: TNF-α
# Assay: Cell-Based TNFα Inhibition Assay (PBMCs induced with LPS, Meso Scale)
# Details: PBMCs pretreated 1 hr, induced with LPS 100 ng/mL 18-24 hrs, supernatant TNF-α; for inhibition at 0.1 µM / inhibition at 1 µM: PBMC; for inhibition at 0.1 µM / % TNFα Inhibition (0.1 μM): 0.1 μM compound; for inhibition at 1 µM / % TNFα Inhibition (1 μM): 1 μM compound
# Description: Cell-Based TNFα Inhibition Assay
# PBMCs induced with LPS (lipopolysaccharide): Frozen […] blood mononuclear cells (PBMCs) are purchased from AllCells. Cells are quick thawed, washed once with Roswell Park Memorial Institute medium (RPMI)-1640/10% FBS/1% Penicillin/1% Streptomycin and plated in 96 well plates at 200,000 cells per well. Cells are pretreated with DMSO only or the indicated compounds for 1 hr and then induced with […] for 18-24 hrs. The supernatant is analyzed for TNF-α using Meso Scale assay according to manufacturer's protocol. The negative control wells are treated with DMSO. Compound activity is measured as a percentage of the DMSO control.
Structure (SMILES),inhibition at 0.1 µM,inhibition at 1 µM,% TNFα Inhibition (0.1 μM),% TNFα Inhibition (1 μM)
"CC(=O)Nc1scc2c1C(=O)N([C@H](CS(=O)(=O)N(C)C)c1ccc3c(c1)OCO3)C2=O [Compound 27, N-(5-(1-(benzo[d][1,3]dioxol-5-yl)-2-(N,N-dimethylsulfamoyl)ethyl)-4,6-dioxo-5,6-dihydro-4H-thieno[3,4-c]pyrrol-1-yl)acetamide]",< 20%,< 20%,–,–
"CCOc1cc([C@@H](CS(C)(=O)=O)N2Cc3c(NC(=O)C4CC4)csc3C2=O)ccc1OC [Compound 32, (S)—N-(5-(1-(3-ethoxy-4-methoxyphenyl)-2-(methylsulfonyl)ethyl)-6-oxo-5,6-dihydro-4H-thieno[2,3-c]pyrrol-3-yl)cyclopropanecarboxamide]",< 20%,20 to 40%,–,–
"CCOc1cc([C@@H](CS(C)(=O)=O)N2C(=O)c3scc(NC(=O)COC)c3C2=O)ccc1OC [Compound 10, (S)—N-(5-(1-(3-ethoxy-4-methoxyphenyl)-2-(methylsulfonyl)ethyl)-4,6-dioxo-5,6-dihydro-4H-thieno[2,3-c]pyrrol-3-yl)-2-methoxyacetamide]",< 20%,40 to 60%,–,–
"CCOc1cc([C@@H](CS(C)(=O)=O)N2Cc3c(NC(=O)C(F)(F)F)csc3C2=O)ccc1OC [Compound 30, (S)—N-(5-(1-(3-ethoxy-4-methoxyphenyl)-2-(methylsulfonyl)ethyl)-6-oxo-5,6-dihydro-4H-thieno[2,3-c]pyrrol-3-yl)-2,2,2-trifluoroacetamide]",< 20%,< 20%,–,–
"CS(=O)(=O)C[C@H](c1ccc2c(c1)OCO2)N1C(=O)c2scc(NC(=O)C(F)(F)F)c2C1=O [Compound 22, N-(5-(1-(benzo[d][1,3]dioxol-5-yl)-2-(methylsulfonyl)ethyl)-4,6-dioxo-5,6-dihydro-4H-thieno[2,3-c]pyrrol-3-yl)-2,2,2-trifluoroacetamide]",–,–,C (C = a single percent inhibition value ≤40% and >20%),C (C = a single percent inhibition value ≤40% and >20%)
"CS(=O)(=O)C[C@H](c1ccc2c(c1)OCO2)N1C(=O)c2csc(NC(=O)C3CC3)c2C1=O [Compound 13, N-(5-(1-(benzo[d][1,3]dioxol-5-yl)-2-(methylsulfonyl)ethyl)-4,6-dioxo-5,6-dihydro-4H-thieno[3,4-c]pyrrol-1-yl)cyclopropane Carboxamide]",< 20%,< 20%,–,–
"CCOc1cc([C@@H](CS(C)(=O)=O)N2C(=O)c3csc(NC(C)=O)c3C2=O)ccc1OC [Compound 1, (S)—N-(5-(1-(3-ethoxy-4-methoxyphenyl)-2-(methylsulfonyl)ethyl)-4,6-dioxo-5,6-dihydro-4H-thieno[3,4-c]pyrrol-1-yl)acetamide]",40 to 60%,> 60%,–,–
"CCOc1cc([C@@H](CS(C)(=O)=O)N2C(=O)c3csc(NC(=O)COC)c3C2=O)ccc1OC [Compound 3, (S)—N-(5-(1-(3-ethoxy-4-methoxyphenyl)-2-(methylsulfonyl)ethyl)-4,6-dioxo-5,6-dihydro-4H-thieno[3,4-c]pyrrol-1-yl)-2-methoxyacetamide]",40 to 60%,> 60%,–,–
"CCOc1cc([C@@H](CS(=O)(=O)N(C)C)N2C(=O)c3csc(NC(C)=O)c3C2=O)ccc1OC [Compound 15, (S)—N-(5-(2-(N,N-dimethylsulfamoyl)-1-(3-ethoxy-4-methoxyphenyl)ethyl)-4,6-dioxo-5,6-dihydro-4H-thieno[3,4-c]pyrrol-1-yl)acetamide]",< 20%,< 20%,–,–
CCOc1cc([C@@H](CS(C)(=O)=O)N2C(=O)c3csc(NC(=O)C(CC)CC)c3C2=O)ccc1OC [Compound 6],40 to 60%,> 60%,–,–
CCOc1cc([C@@H](CS(C)(=O)=O)N2C(=O)c3csc(N(C(=O)C4CC4)C(=O)C4CC4)c3C2=O)ccc1OC [Compound 4],< 20%,40 to 60%,–,–
"CS(=O)(=O)C[C@@H](c1ccc2c(c1)OCO2)N1C(=O)c2csc(NC(=O)C(F)(F)F)c2C1=O [Compound 17, N-(5-(1-(benzo[d][1,3]dioxol-5-yl)-2-(methylsulfonyl)ethyl)-4,6-dioxo-5,6-dihydro-4H-thieno[3,4-c]pyrrol-1-yl)-2,2,2-trifluoro Acetamide]",< 20%,< 20%,–,–
"CCOc1cc([C@@H](CS(C)(=O)=O)N2C(=O)c3csc(NC(=O)C(C)C(F)(F)F)c3C2=O)ccc1OC (stereo partly drawn) [Compound 5, N-(5-((S)-1-(3-ethoxy-4-methoxyphenyl)-2-(methylsulfonyl)ethyl)-4,6-dioxo-5,6-dihydro-4H-thieno[3,4-c]pyrrol-1-yl)-3,3,3-trifluoro-2-methylpropanamide]",20 to 40%,> 60%,–,–
"CCOc1cc([C@@H](CS(C)(=O)=O)N2C(=O)c3csc(NC(=O)C4CC4)c3C2=O)ccc1OC [Compound 8, (S)—N-(5-(1-(3-ethoxy-4-methoxyphenyl)-2-(methylsulfonyl)ethyl)-4,6-dioxo-5,6-dihydro-4H-thieno[3,4-c]pyrrol-1-yl)cyclopropanecarboxamide]",< 20%,> 60%,–,–
"CC(=O)Nc1csc2c1C(=O)N([C@H](CS(C)(=O)=O)c1ccc3c(c1)OCO3)C2=O [Compound 23, N-(5-(1-(benzo[d][1,3]dioxol-5-yl)-2-(methylsulfonyl)ethyl)-4,6-dioxo-5,6-dihydro-4H-thieno[2,3-c]pyrrol-3-yl)acetamide]",20 to 40%,40 to 60%,–,–
"CCOc1cc([C@@H](CS(C)(=O)=O)N2C(=O)c3csc(NC(=O)C(C)(C)C)c3C2=O)ccc1OC [Compound 2, (S)—N-(5-(1-(3-ethoxy-4-methoxyphenyl)-2-(methylsulfonyl)ethyl)-4,6-dioxo-5,6-dihydro-4H-thieno[3,4-c]pyrrol-1-yl)pivalamide]",< 20%,> 60%,–,–
"CCOc1cc([C@@H](CS(C)(=O)=O)N2C(=O)c3scc(NC(=O)C(F)(F)F)c3C2=O)ccc1OC [Compound 9, (S)—N-(5-(1-(3-ethoxy-4-methoxyphenyl)-2-(methylsulfonyl)ethyl)-4,6-dioxo-5,6-dihydro-4H-thieno[2,3-c]pyrrol-3-yl)-2,2,2-trifluoroacetamide]",< 20%,40 to 60%,–,–
"COCC(=O)Nc1csc2c1C(=O)N([C@@H](CS(C)(=O)=O)c1ccc3c(c1)OCO3)C2=O [Compound 26, N-(5-(1-(benzo[d][1,3]dioxol-5-yl)-2-(methylsulfonyl)ethyl)-4,6-dioxo-5,6-dihydro-4H-thieno[2,3-c]pyrrol-3-yl)-2-methoxy acetamide]",< 20%,< 20%,–,–
"CCOc1cc([C@@H](CS(C)(=O)=O)N2Cc3c(NC(=O)COC)csc3C2=O)ccc1OC [Compound 31, (S)—N-(5-(1-(3-ethoxy-4-methoxyphenyl)-2-(methylsulfonyl)ethyl)-6-oxo-5,6-dihydro-4H-thieno[2,3-c]pyrrol-3-yl)-2-methoxyacetamide]",< 20%,< 20%,–,–
"CS(=O)(=O)C[C@H](c1ccc2c(c1)OCO2)N1C(=O)c2csc(NC(=O)C(F)(F)F)c2C1=O [Compound 16, N-(5-(1-(benzo[d][1,3]dioxol-5-yl)-2-(methylsulfonyl)ethyl)-4,6-dioxo-5,6-dihydro-4H-thieno[3,4-c]pyrrol-1-yl)-2,2,2-trifluoro Acetamide]",< 20%,< 20%,–,–
"CC(=O)Nc1csc2c1C(=O)N([C@H](CS(C)(=O)=O)c1ccc3c(c1)OCO3)C2=O [Compound 24, N-(5-(1-(benzo[d][1,3]dioxol-5-yl)-2-(methylsulfonyl)ethyl)-4,6-dioxo-5,6-dihydro-4H-thieno[2,3-c]pyrrol-3-yl)acetamide]",–,–,D (D = a single percent inhibition value <20%),D (D = a single percent inhibition value <20%)
"CS(=O)(=O)C[C@H](c1ccc2c(c1)OCO2)N1C(=O)c2scc(NC(=O)C(F)(F)F)c2C1=O [Compound 21, N-(5-(1-(benzo[d][1,3]dioxol-5-yl)-2-(methylsulfonyl)ethyl)-4,6-dioxo-5,6-dihydro-4H-thieno[2,3-c]pyrrol-3-yl)-2,2,2-trifluoroacetamide]",< 20%,< 20%,–,–
"CCOc1cc([C@@H](CS(C)(=O)=O)N2C(=O)c3csc(NC(=O)C(F)(F)F)c3C2=O)ccc1OC [Compound 7, (S)—N-(5-(1-(3-ethoxy-4-methoxyphenyl)-2-(methylsulfonyl)ethyl)-4,6-dioxo-5,6-dihydro-4H-thieno[3,4-c]pyrrol-1-yl)-2,2,2-trifluoroacetamide]",< 20%,< 20%,–,–
"CCOc1cc([C@H](CS(=O)(=O)N(C)C)N2C(=O)c3csc(NC(C)=O)c3C2=O)ccc1OC [Compound 29, (R)—N-(5-(2-(N,N-dimethylsulfamoyl)-1-(3-ethoxy-4-methoxyphenyl)ethyl)-4,6-dioxo-5,6-dihydro-4H-thieno[3,4-c]pyrrol-1-yl)acetamide]",< 20%,< 20%,–,–
"CC(=O)Nc1scc2c1C(=O)N([C@H](CS(C)(=O)=O)c1ccc3c(c1)OCO3)C2=O [Compound 12, N-(5-(1-(benzo[d][1,3]dioxol-5-yl)-2-(methylsulfonyl)ethyl)-4,6-dioxo-5,6-dihydro-4H-thieno[3,4-c]pyrrol-1-yl)acetamide]",< 20%,< 20%,–,–
